# Results as given in patent US10202339B2, “Therapeutic compounds and compositions” (AGIOS PHARMACEUTICALS, INC., priority 2012, dated 2019).
# Molecular target: IDH2 R140Q (Homo sapiens (Human), UniProt P48735, R140Q)
# Test: IDH2 R140Q enzymatic cofactor depletion assay (diaphorase/resazurin)
# Type: biochemical
# Conditions: IDH2 R140Q enzyme, one hour preincubation with compound, one hour reaction; read-out: Enz R140Q
# Method in brief: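 Enzyme preincubated with compound 1 h at room temperature, then reaction started with 50 μM NADPH and 6.3 mM α-KG and run 1 h at room temperature. Remaining NADPH measured by diaphorase (36 μg/ml)/resazurin (60 μM) stop mix, fluorescence read at Ex544/Em590 after 1 min.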
# IDH2 R140Q, sequence (P48735 40-452 R140Q): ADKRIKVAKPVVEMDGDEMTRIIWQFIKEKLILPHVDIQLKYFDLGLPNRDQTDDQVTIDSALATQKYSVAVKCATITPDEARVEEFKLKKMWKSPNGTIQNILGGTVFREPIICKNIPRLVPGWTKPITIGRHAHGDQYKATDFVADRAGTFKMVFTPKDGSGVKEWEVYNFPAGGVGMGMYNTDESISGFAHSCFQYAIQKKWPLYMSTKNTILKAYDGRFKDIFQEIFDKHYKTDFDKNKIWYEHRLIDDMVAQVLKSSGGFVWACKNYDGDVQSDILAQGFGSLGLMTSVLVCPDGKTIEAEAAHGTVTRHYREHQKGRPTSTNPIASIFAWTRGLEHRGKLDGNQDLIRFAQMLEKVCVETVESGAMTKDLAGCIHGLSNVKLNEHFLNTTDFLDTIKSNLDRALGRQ
row,Compound,IC50
1,O=C(Nc1cccc(C(F)(F)F)c1)Nc1cc(S(=O)(=O)Nc2cc[nH]n2)ccc1-c1ccsc1 [Compound 148],1000 to 10000 nM
2,"Cc1ccc(F)c(NC(=O)Nc2cc(S(=O)(=O)Nc3ccccc3)ccc2-c2ccsc2)c1 [Compound 12, 3-(3-(2-fluoro-5-methylphenyl)ureido)-N-phenyl-4-(thiophen-3-yl)benzenesulfonamide]",100 to 1000 nM
3,O=C(Nc1ccc(F)c(C(F)(F)F)c1)Nc1cc(S(=O)(=O)Nc2ccccc2)ccc1-c1ccsc1 [Compound 21],1000 to 10000 nM
4,"O=C(Nc1ncc(Cl)s1)Nc1cc(S(=O)(=O)NCC(F)(F)F)ccc1-c1ccccc1 [Compound 100, 2-(3-(5-chlorothiazol-2-yl)ureido)-N-(2,2,2-trifluoroethyl)-[1,1′-biphenyl]-4-sulfonamide]",100 to 1000 nM
5,"CN(c1ccccc1)c1ccc(S(=O)(=O)Nc2ccccc2)cc1NC(=O)Nc1cccc(C(F)(F)F)c1 [Compound 341, 4-(methyl(phenyl)amino)-N-phenyl-3-(3-(3-(trifluoromethyl)phenyl)ureido)benzenesulfonamide]",1000 to 10000 nM
6,"O=C(Nc1cccc(C(F)(F)F)c1)Nc1cc(S(=O)(=O)NC2COC2)ccc1-c1ccccc1 [Compound 45, N-(oxetan-3-yl)-2-(3-(3-(trifluoromethyl)phenyl)ureido)-[1,1′-biphenyl]-4-sulfonamide]",< 100 nM
7,"O=C(Nc1cccc(C(F)(F)F)c1)Nc1cc(S(=O)(=O)NCC(F)(F)F)ccc1C1CCCO1 (centres unmarked) [Compound 173, 4-(tetrahydrofuran-2-yl)-N-(2,2,2-trifluoroethyl)-3-(3-(3-(trifluoromethyl)phenyl)ureido)benzene sulfonamide]",100 to 1000 nM
8,O=C(Nc1cccc(C(F)(F)F)c1)Nc1cc(S(=O)(=O)Nc2ccccc2)ccc1-n1cccn1 [Compound 344],1000 to 10000 nM
9,"O=C(Nc1ccc(F)c(Cl)c1)Nc1cc(S(=O)(=O)NCC(F)(F)F)ccc1C1=CCOCC1 [Compound 158, 3-(3-(3-chloro-4-fluorophenyl)ureido)-4-(3,6-dihydro-2H-pyran-4-yl)-N-(2,2,2-trifluoroethyl)benzene sulfonamide]",100 to 1000 nM
10,O=C(Nc1cccc(C(F)(F)F)c1)Nc1cc(S(=O)(=O)Nc2ccccc2O)ccc1-c1ccsc1 [Compound 142],> 10000 nM
11,"COCCCNS(=O)(=O)c1ccc(-c2ccsc2)c(NC(=O)Nc2cccc(C(F)(F)F)c2)c1 [Compound 122, N-(3-methoxypropyl)-4-(thiophen-3-yl)-3-(3-(3-(trifluoromethyl)phenyl)ureido)benzenesulfonamide]",100 to 1000 nM
12,"C#Cc1ccc(S(=O)(=O)NCC(F)(F)F)cc1NC(=O)Nc1cccc(C(F)(F)F)c1 [Compound 338, 4-ethynyl-N-(2,2,2-trifluoroethyl)-3-(3-(3-(trifluoromethyl)phenyl)ureido)benzenesulfonamide]",100 to 1000 nM
13,"O=C(Nc1cc(S(=O)(=O)NCC(F)(F)F)ccc1-c1ccccc1)NC1CCCC(C(F)(F)F)C1 (centres unmarked) [Compound 72, N-(2,2,2-trifluoroethyl)-2-(3-(3-(trifluoromethyl)cyclohexyl)ureido)-[1,1′-biphenyl]-4-sulfonamide]",100 to 1000 nM
14,"CCC(C)NS(=O)(=O)c1ccc(-c2ccsc2)c(NC(=O)Nc2cccc(C(F)(F)F)c2)c1 (centres unmarked) [Compound 117, N-(sec-butyl)-4-(thiophen-3-yl)-3-(3-(3-(trifluoromethyl)phenyl)ureido)benzenesulfonamide]",100 to 1000 nM
15,"O=C(Nc1cccc(C(F)(F)F)c1)Nc1cc(S(=O)(=O)Nc2ccccc2)ccc1-n1ccnc1 [Compound 342, 4-(1H-imidazol-1-yl)-N-phenyl-3-(3-(3-(trifluoromethyl)phenyl)ureido)benzenesulfonamide]",100 to 1000 nM
16,"O=C(Nc1ccc(F)c(C(F)(F)F)c1)Nc1cc(S(=O)(=O)NCC2CC2)ccc1C1=CCOCC1 [Compound 156, N-(cyclopropylmethyl)-4-(3,6-dihydro-2H-pyran-4-yl)-3-(3-(4-fluoro-3-(trifluoromethyl)phenyl)ureido)benzenesulfonamide]",100 to 1000 nM
17,CC(C)c1cccc(NC(=O)Nc2cc(S(=O)(=O)Nc3ccccc3)ccc2-c2ccsc2)c1 [Compound 14],1000 to 10000 nM
18,"CCn1ccc(NC(=O)Nc2cc(S(=O)(=O)NCC(F)(F)F)ccc2-c2ccccc2)n1 [Compound 93, 2-(3-(1-ethyl-1H-pyrazol-3-yl)ureido)-N-(2,2,2-trifluoroethyl)-[1,1′-biphenyl]-4-sulfonamide]",100 to 1000 nM
19,"O=C(Nc1cccc(C(F)(F)F)c1)Nc1cc(S(=O)(=O)NCC(F)(F)F)cnc1OCC1CCOC1 (centres unmarked) [Compound 201, 6-((tetrahydrofuran-3-yl)methoxy)-N-(2,2,2-trifluoroethyl)-5-(3-(3-(trifluoromethyl)phenyl)ureido)pyridine-3-sulfonamide]",100 to 1000 nM

row,Compound,IC50
1,"O=C(Nc1ncc(Cl)s1)Nc1cc(S(=O)(=O)NCC(F)(F)F)ccc1C1CCCCO1 (centres unmarked) [Compound 169, 3-(3-(5-chlorothiazol-2-yl)ureido)-4-(tetrahydro-2H-pyran-2-yl)-N-(2,2,2-trifluoroethyl)benzene sulfonamide]",100 to 1000 nM
2,"O=C(Nc1cccc(C(F)(F)F)c1)Nc1cc(S(=O)(=O)NCC2CC2)ccc1C1=CCOCC1 [Compound 154, N-(cyclopropylmethyl)-4-(3,6-dihydro-2H-pyran-4-yl)-3-(3-(3-(trifluoromethyl)phenyl)ureido)benzene sulfonamide]",100 to 1000 nM
3,"O=C(Nc1cc(S(=O)(=O)NCC(F)(F)F)ccc1-c1ccccc1)n1ccc2ccccc21 [Compound 108, N-(4-(N-(2,2,2-trifluoroethyl)sulfamoyl)-[1,1′-biphenyl]-2-yl)-1H-indole-1-carboxamide]",100 to 1000 nM
4,"O=C(Nc1cccc(C(F)(F)F)c1)Nc1cc(S(=O)(=O)Nc2ccccc2)ccc1C1=CCOCC1 [Compound 161, 4-(3,6-dihydro-2H-pyran-4-yl)-N-phenyl-3-(3-(3-(trifluoromethyl)phenyl)ureido)benzene sulfonamide]",100 to 1000 nM
5,"CC[S+]([O-])c1ccc(S(=O)(=O)NCC(F)(F)F)cc1NC(=O)Nc1cccc(C(F)(F)F)c1 (centres unmarked) [Compound 195, 4-(ethylsulfinyl)-N-(2,2,2-trifluoroethyl)-3-(3-(3-(trifluoromethyl)phenyl)ureido)benzenesulfonamide]",100 to 1000 nM
6,"O=C(Nc1cc(S(=O)(=O)NCC(F)(F)F)ccc1-c1ccccc1)Nc1cccnc1F [Compound 97, 2-(3-(2-fluoropyridin-3-yl)ureido)-N-(2,2,2-trifluoroethyl)-[1,1′-biphenyl]-4-sulfonamide]",100 to 1000 nM
7,"CC1CCCC(NC(=O)Nc2cc(S(=O)(=O)NCC(F)(F)F)ccc2-c2ccccc2)C1 (centres unmarked) [Compound 71, 2-(3-(3-methylcyclohexyl)ureido)-N-(2,2,2-trifluoroethyl)-[1,1′-biphenyl]-4-sulfonamide]",100 to 1000 nM
8,"O=C(Nc1cc(S(=O)(=O)NC2CC2)ccc1-c1ccsc1)Nc1cccc(Cl)c1Cl [Compound 27, N-cyclopropyl-3-(3-(2,3-dichlorophenyl)ureido)-4-(thiophen-3-yl)benzenesulfonamide]",100 to 1000 nM
9,"O=C(Nc1cccc(C(F)(F)F)c1)Nc1cc(S(=O)(=O)NC2CC2)ccc1-c1ccccc1 [Compound 36, N-cyclopropyl-2-(3-(3-(trifluoromethyl)phenyl)ureido)-[1,1′-biphenyl]-4-sulfonamide]",100 to 1000 nM
10,"O=C(Nc1cccc(C(F)(F)F)c1)Nc1cc(S(=O)(=O)NCC(F)(F)F)ccc1OCC1CCCO1 (centres unmarked) [Compound 176, 4-((tetrahydrofuran-2-yl)methoxy)-N-(2,2,2-trifluoroethyl)-3-(3-(3-(trifluoromethyl)phenyl)ureido)benzenesulfonamide]",100 to 1000 nM
11,"Cc1cccc(-c2ccc(S(=O)(=O)NC3CC3)cc2NC(=O)Nc2cccc(C(F)(F)F)c2)c1 [Compound 48, N-cyclopropyl-3′-methyl-2-(3-(3-(trifluoromethyl)phenyl)ureido)-[1,1′-biphenyl]-4-sulfonamide]",1000 to 10000 nM
12,O=C(Nc1cccc(C(F)(F)F)c1)Nc1cc(S(=O)(=O)N2CCCC2)ccc1-c1ccsc1 [Compound 141],1000 to 10000 nM
13,"O=C(Nc1ccccc1F)Nc1cc(S(=O)(=O)NC2CC2)ccc1-c1ccccc1 [Compound 35, N-cyclopropyl-2-(3-(2-fluorophenyl)ureido)-[1,1′-biphenyl]-4-sulfonamide]",100 to 1000 nM
14,"O=C(Nc1cccc(C(F)(F)F)c1)Nc1cc(S(=O)(=O)NCC(F)(F)F)ccc1C1=CCOCC1 [Compound 157, 4-(3,6-dihydro-2H-pyran-4-yl)-N-(2,2,2-trifluoroethyl)-3-(3-(3-(trifluoromethyl)phenyl)ureido)benzene sulfonamide]",1000 to 10000 nM
15,"O=C(Nc1cccc(C(F)(F)F)c1)Nc1cc(S(=O)(=O)NC2CC2)ccc1-n1ccnc1 [Compound 345, N-cyclopropyl-4-(1H-imidazol-1-yl)-3-(3-(3-(trifluoromethyl)phenyl)ureido)benzenesulfonamide]",100 to 1000 nM
16,"O=C(Nc1ccc(F)cc1F)Nc1cc(S(=O)(=O)NCC(F)(F)F)ccc1OCC1CC1 [Compound 188, 4-(cyclopropylmethoxy)-3-(3-(2,4-difluorophenyl)ureido)-N-(2,2,2-trifluoroethyl)benzenesulfonamide]",100 to 1000 nM
17,"O=C(Nc1ccc(F)c(C(F)(F)F)c1)Nc1cc(S(=O)(=O)NCC(F)(F)F)ccc1C1=CCOCC1 [Compound 159, 4-(3,6-dihydro-2H-pyran-4-yl)-3-(3-(4-fluoro-3-(trifluoromethyl)phenyl)ureido)-N-(2,2,2-trifluoroethyl)benzenesulfonamide]",100 to 1000 nM
18,"O=C(Nc1cccc(Cl)c1)Nc1cc(S(=O)(=O)Nc2ccccc2)ccc1-c1ccsc1 [Compound 8, 3-(3-(3-chlorophenyl)ureido)-N-phenyl-4-(thiophen-3-yl)benzenesulfonamide]",100 to 1000 nM
19,"CCCNS(=O)(=O)c1ccc(-c2ccsc2)c(NC(=O)Nc2cccc(C(F)(F)F)c2)c1 [Compound 113, N-propyl-4-(thiophen-3-yl)-3-(3-(3-(trifluoromethyl)phenyl)ureido)benzenesulfonamide]",100 to 1000 nM
